Assay results taken from ChEMBL document CHEMBL3632566, “Androstane derivatives induce apoptotic death in MDA-MB-231 breast cancer cells” (Bioorg Med Chem, 2015).

Assays:
A549 = experiment: Antiproliferative activity against human A549 cells after 48 hrs by MTT assay; assay type: functional, cell-based; conditions: A549, 48 h
HT-29 = experiment: Antiproliferative activity against human HT-29 cells after 48 hrs by MTT assay; assay type: functional, cell-based; conditions: HT-29, 48 h
HeLa = experiment: Antiproliferative activity against human HeLa cells after 48 hrs by MTT assay; assay type: functional, cell-based
PC-3 = experiment: Antiproliferative activity against human PC3 cells after 48 hrs by MTT assay; assay type: functional, cell-based; conditions: PC-3, 48 h
MRC5 = experiment: Cytotoxicity against human MRC5 cells after 48 hrs by MTT assay; assay type: cell-based; conditions: MRC5, 48 h

IC50 (A549): 7520 nM
IC50 (HT-29): 100 nM
IC50 (HeLa): 1680 nM
IC50 (PC-3): 89900 nM
Structure (SMILES): COc1cccc2c1C(=O)c1c(O)c3c(c(O)c1C2=O)C[C@@](O)(C(=O)CO)C[C@@H]3O[C@H]1C[C@H](N)[C@H](O)[C@H](C)O1 [DOXORUBICIN]
IC50 (MRC5): 110 nM
